# Experimental data reported in US9347934B2, “Assays for identifying compounds that modulate bitter taste” (CHROMOCELL CORPORATION, priority 2011, dated 2016).
# How the values were obtained:
# Assay type in all cases: cell-based
# [1] = target: T1, TAS2R10 (Homo sapiens, UniProt Q9NYW0); test: Calcium fluorescence functional assay, TAS2R10 cell line; conditions: 20 mM tastant; cell line expressing human TAS2R10 and mouse Gα15
# T1 construct: expressed in transfected cells
# T1 sequence (Q9NYW0 1-307): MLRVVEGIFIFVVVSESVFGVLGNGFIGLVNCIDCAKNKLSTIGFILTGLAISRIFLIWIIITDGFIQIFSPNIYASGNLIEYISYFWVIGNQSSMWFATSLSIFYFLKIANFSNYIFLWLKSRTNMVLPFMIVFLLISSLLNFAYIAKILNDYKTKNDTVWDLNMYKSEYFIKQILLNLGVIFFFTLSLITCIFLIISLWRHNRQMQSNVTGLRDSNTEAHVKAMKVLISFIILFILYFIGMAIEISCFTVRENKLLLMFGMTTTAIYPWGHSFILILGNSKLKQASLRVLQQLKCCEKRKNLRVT
# Protocol: (§1) Accordingly, each cell line of the panel expressed a human bitter taste receptor and mouse Gα15 signaling protein.
# (§2) Probenecid was not included in the load solution.
# (§3) After dye loading, cell plates were placed in a fluorescent plate reader (e.g., FDSS6000 (Hamamatsu, Japan)) and receptor stimulation was measured by adding 50 ul of 3× concentrated ligand/agonist stock. Fluorescence was monitored continuously for 10 s before agonist addition and for 100-250 s after stimulation with agonist.
# (§4) Receptor Activation is defined as follows: % Activation=[((Maximum signal fluorescence−Minimum signal fluorescence)−(Maximum control fluorescence−Minimum control fluorescence))/(Maximum buffer fluorescence−Minimum buffer fluorescence)]*100 Functional Response=[(Maximum signal fluorescence−Minimum signal fluorescence)−(Maximum control fluorescence−Minimum control fluorescence)] • Signal Fluorescence: refers to the change in fluorescence seen with addition of ligand • Control fluorescence: refers to the change in fluorescence seen with addition of buffer (negative control) • Calcium signals from ligand and control were normalized to the basal fluorescence of the cells prior to the stimulation.
# (§5) A concentration analysis was performed and EC50 values were calculated by nonlinear regression using the formula: Y=Bottom+(Top-Bottom)/(1+10^((Log EC50-X)*Hill Slope)), X=log of dose or concentration, Y=Response (increasing as X increases), Top=maximum signal, Bottom=minimum signal.
# [2] = target: T2, TAS2R9 (Homo sapiens, UniProt Q9NYW1); test: Calcium fluorescence functional assay, TAS2R9 cell line; conditions: for TAS2R9 bitter taste receptor activity (changes in intracellular calcium): 20 mM tastant, cell line expressing human TAS2R9 and mouse Gα15
# T2 construct: expressed in transfected cells
# T2 sequence (Q9NYW1 1-312): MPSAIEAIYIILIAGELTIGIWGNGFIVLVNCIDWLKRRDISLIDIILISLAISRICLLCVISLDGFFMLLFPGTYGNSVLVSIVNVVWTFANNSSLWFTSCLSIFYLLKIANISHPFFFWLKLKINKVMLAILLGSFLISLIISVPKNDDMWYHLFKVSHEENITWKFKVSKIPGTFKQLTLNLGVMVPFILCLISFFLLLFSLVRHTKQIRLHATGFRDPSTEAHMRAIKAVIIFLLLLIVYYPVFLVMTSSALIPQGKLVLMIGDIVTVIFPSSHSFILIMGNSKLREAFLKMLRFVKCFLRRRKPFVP
# Protocol: as §1, §2, §3, §4, §5
# [3] = target: T3, TAS2R60 (Homo sapiens, UniProt P59551); test: Calcium fluorescence functional assay, TAS2R60 cell line; conditions: for TAS2R60 bitter taste receptor activity (changes in intracellular calcium): 20 mM tastant, cell line expressing human TAS2R60 and mouse Gα15
# T3 construct: expressed in transfected cells
# T3 sequence (P59551 1-318): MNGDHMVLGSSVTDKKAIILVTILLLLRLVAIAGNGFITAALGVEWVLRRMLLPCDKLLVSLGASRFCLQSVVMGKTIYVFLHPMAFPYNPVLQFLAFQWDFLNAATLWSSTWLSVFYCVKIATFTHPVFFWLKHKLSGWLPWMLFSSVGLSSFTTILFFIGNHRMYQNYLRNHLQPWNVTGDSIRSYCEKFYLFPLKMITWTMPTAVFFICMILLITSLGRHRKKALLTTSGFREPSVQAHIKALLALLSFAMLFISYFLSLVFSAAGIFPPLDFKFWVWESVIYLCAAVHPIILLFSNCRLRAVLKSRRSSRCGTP
# Protocol: as §1, §2, §3, §4, §5
# [4] = target: T4, TAS2R39 (Homo sapiens, UniProt P59534); test: Calcium fluorescence functional assay, TAS2R39 cell line; conditions: 20 mM tastant; cell line expressing human TAS2R39 and mouse Gα15
# T4 construct: expressed in transfected cells
# T4 sequence (P59534 1-338): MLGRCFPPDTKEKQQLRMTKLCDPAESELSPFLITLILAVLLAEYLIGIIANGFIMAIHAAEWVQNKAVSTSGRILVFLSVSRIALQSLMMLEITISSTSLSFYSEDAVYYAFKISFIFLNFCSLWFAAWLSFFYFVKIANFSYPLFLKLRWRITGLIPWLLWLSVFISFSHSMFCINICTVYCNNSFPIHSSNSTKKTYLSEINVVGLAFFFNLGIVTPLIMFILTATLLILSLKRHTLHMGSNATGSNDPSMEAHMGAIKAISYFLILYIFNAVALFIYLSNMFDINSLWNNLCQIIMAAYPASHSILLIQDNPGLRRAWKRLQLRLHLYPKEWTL
# Protocol: as §1, §2, §3, §4, §5
# [5] = target: T5, TAS2R5 (Homo sapiens, UniProt Q9NYW4); test: Calcium fluorescence functional assay, TAS2R5 cell line; conditions: 20 mM tastant; cell line expressing human TAS2R5 and mouse Gα15
# T5 construct: expressed in transfected cells
# T5 sequence (Q9NYW4 1-299): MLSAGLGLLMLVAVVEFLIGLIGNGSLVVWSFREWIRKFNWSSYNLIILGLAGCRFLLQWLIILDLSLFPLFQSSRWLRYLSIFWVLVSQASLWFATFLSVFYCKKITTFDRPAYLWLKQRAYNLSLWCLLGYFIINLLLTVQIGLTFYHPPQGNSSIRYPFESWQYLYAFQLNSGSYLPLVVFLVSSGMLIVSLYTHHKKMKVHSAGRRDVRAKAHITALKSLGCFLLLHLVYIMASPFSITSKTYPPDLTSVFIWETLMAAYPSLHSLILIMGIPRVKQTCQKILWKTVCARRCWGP
# Protocol: as §1, §2, §3, §4, §5
# [6] = target: T6, TAS2R45 (Homo sapiens, UniProt P59539); test: Calcium fluorescence functional assay, TAS2R45 cell line; conditions: 20 mM tastant; cell line expressing human TAS2R45 and mouse Gα15
# T6 construct: expressed in transfected cells
# T6 sequence (P59539 1-299): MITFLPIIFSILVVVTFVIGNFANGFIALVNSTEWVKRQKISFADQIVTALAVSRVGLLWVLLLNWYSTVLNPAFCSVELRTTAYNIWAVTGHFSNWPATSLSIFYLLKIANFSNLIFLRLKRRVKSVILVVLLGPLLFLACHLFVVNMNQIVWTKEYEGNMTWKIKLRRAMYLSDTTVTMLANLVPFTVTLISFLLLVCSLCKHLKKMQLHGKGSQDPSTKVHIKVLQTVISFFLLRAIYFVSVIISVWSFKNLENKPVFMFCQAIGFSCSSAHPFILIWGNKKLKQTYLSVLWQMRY
# Protocol: as §1, §2, §3, §4, §5
Compound,TAS2R10 bitter taste receptor activity (changes in intracellular calcium) [1],TAS2R9 bitter taste receptor activity (changes in intracellular calcium) [2],TAS2R60 bitter taste receptor activity (changes in intracellular calcium) [3],TAS2R39 bitter taste receptor activity (changes in intracellular calcium) [4],TAS2R5 bitter taste receptor activity (changes in intracellular calcium) [5],TAS2R45 bitter taste receptor activity (changes in intracellular calcium) [6],"EC50 ([2]; increasing concentrations of KCl, TAS2R9 cell line (FIG. 3), read-out: EC50 value, activation of TAS2R9) [mM]","EC50 ([3]; increasing concentrations of KCl, TAS2R60 cell line (FIG. 3), read-out: EC50 value, activation of TAS2R60) [mM]"
"CC(O)C(=O)[O-].[K+] (centres unmarked) [Potassium lactate, potassium lactate]",did not induce,induced,induced,did not induce,did not induce,did not induce,–,–
"[Cl-].[K+] [KCl, potassium chloride]",did not induce,induced,induced,did not induce,did not induce,did not induce,5 to 15,5 to 15
CC1=CC(=O)NS(=O)(=O)O1 [Acesulfame K],did not induce,induced,did not induce,did not induce,did not induce,did not induce,–,–
